Data published in article PMC9934367, “Functional impact of subunit composition and compensation on Drosophila melanogaster nicotinic receptors–targets of neonicotinoids” (PLOS Genetics, 2023).

System: D. melanogaster nAChRs
Experiment: Comparison of agonist activity between nAChRs expressed in X. laevis oocytes (one-way ANOVA, Kruskal-Wallis)
Format: cell-based
Method: We minimised the use of X. laevis according to the UK Animals (Scientific Procedures) Act, 1986. […] Oocytes were defolliculated after collagenase treatment in Ca^2+-free standard oocyte saline (Ca^2+-free SOS). cRNAs of the nAChR subunits and co-factors mixed at a concentration of 0.1 mg/mL was injected into oocytes at a volume of 50 nL. Then the oocytes were incubated in the incubation medium (SOS supplemented with sodium pyruvate (Nacalai Tesque, #13058–12), penicillin-streptomycin (MilliporeSigma, #P4333), gentamycin (Nacalai Tesque, #16672–04), and 4% horse serum (Thermo Fisher Scientific, #26050–070) for 3−4 days prior to electrophysiology.
Each defolliculated X. laevis oocyte was secured in a Perspex recording chamber and perfused with the standard oocyte saline (SOS) containing 0.5 μM atropine (SOSA) at a flow rate of 7−10 mL/min [48]. Two glass electrodes filled with 2 M KCl were impaled into each oocyte and the membrane potential was clamped at -100 mV. […] The peak amplitude of the response was measured and analysed by pCLAMP (Molecular Devices, USA).
Y=Imax/1+10^(logEC50‐X)nH
Where Y is the normalised response, X is log[ligand (M)], EC50 is the half maximal concentration (M), Imax is the maximum normalised response and nH is the Hill coefficient.
Prism software was employed for the statistical analyses. […] One-way ANOVA was used to analyse the differences of the ligand agonist activity in terms of pEC50 on the various nAChRs expressed in X. laevis as well as data obtained with D. melanogaster larvae and adults.

[1] = Dα1/Dα2/Dα3/Dβ1/Dβ2 vs. Dα1/Dα2/Dα4/Dβ1/Dβ2
[2] = Dα1/Dα2/Dα3/Dβ1/Dβ2 vs. Dα1/Dα2/Dβ1/Dβ2/Dβ3
[3] = Dα1/Dα2/Dα3/Dβ1/Dβ2 vs. Dα1/Dα3/Dα4/Dβ1/Dβ2
[4] = Dα1/Dα2/Dα3/Dβ1/Dβ2 vs. Dα1/Dα3/Dβ1/Dβ2/Dβ3
[5] = Dα1/Dα2/Dα3/Dβ1/Dβ2 vs. Dα2/Dα3/Dα4/Dβ1/Dβ2
[6] = Dα1/Dα2/Dα3/Dβ1/Dβ2 vs. Dα2/Dα3/Dβ1/Dβ2/Dβ3
[7] = Dα1/Dα2/Dα3/Dβ1 vs. Dα1/Dα2/Dα3/Dβ1/Dβ2
[8] = Dα1/Dα2/Dα3/Dβ1 vs. Dα1/Dα2/Dβ1/Dβ2
[9] = Dα1/Dα2/Dα3/Dβ1 vs. Dα1/Dα3/Dβ1/Dβ2
[10] = Dα1/Dα2/Dα3/Dβ1 vs. Dα1/Dβ1/Dβ2
[11] = Dα1/Dα2/Dα3/Dβ1 vs. Dα2/Dα3/Dβ1/Dβ2
[12] = Dα1/Dα2/Dα3/Dβ1 vs. Dα3/Dβ1/Dβ2
[13] = Dα1/Dα2/Dβ1/Dβ2 vs. Dα1/Dα2/Dα3/Dβ1/Dβ2
[14] = Dα1/Dα2/Dβ1/Dβ2 vs. Dα2/Dα3/Dβ1/Dβ2
[15] = Dα1/Dα2/Dβ1 vs. Dα1/Dα2/Dα3/Dβ1
[16] = Dα1/Dα2/Dβ1 vs. Dα1/Dα2/Dα3/Dβ1/Dβ2
[17] = Dα1/Dα2/Dβ1 vs. Dα1/Dα2/Dβ1/Dβ2
[18] = Dα1/Dα2/Dβ1 vs. Dα1/Dα3/Dβ1/Dβ2
[19] = Dα1/Dα2/Dβ1 vs. Dα2/Dα3/Dβ1/Dβ2
[20] = Dα1/Dα3/Dβ1/Dβ2 vs. Dα1/Dα2/Dα3/Dβ1/Dβ2
[21] = Dα1/Dα3/Dβ1/Dβ2 vs. Dα1/Dα2/Dβ1/Dβ2
[22] = Dα1/Dα3/Dβ1/Dβ2 vs. Dα2/Dα3/Dβ1/Dβ2
[23] = Dα1/Dα3/Dβ1 vs. Dα1/Dα2/Dα3/Dβ1
[24] = Dα1/Dα3/Dβ1 vs. Dα1/Dα2/Dα3/Dβ1/Dβ2
[25] = Dα1/Dα3/Dβ1 vs. Dα1/Dα2/Dβ1/Dβ2
[26] = Dα1/Dα3/Dβ1 vs. Dα1/Dα3/Dβ1/Dβ2
[27] = Dα1/Dα3/Dβ1 vs. Dα2/Dα3/Dβ1/Dβ2
[28] = Dα1/Dβ1/Dβ2 vs. Dα1/Dα2/Dα3/Dβ1/Dβ2
[29] = Dα1/Dβ1/Dβ2 vs. Dα1/Dα2/Dβ1/Dβ2

CN/C(=N\[N+](=O)[O-])NCc1cnc(Cl)s1 [Clothianidin, clothianidin]
Difference of Imax values, nAChRs compared [1]: -0.189 | Difference of pEC50 values, nAChRs compared [1]: -0.13 | Difference of Imax values, nAChRs compared [2]: -0.162 | Difference of pEC50 values, nAChRs compared [2]: 0.92 | Difference of Imax values, nAChRs compared [3]: 0.388 | Difference of pEC50 values, nAChRs compared [3]: -0.35 | Difference of Imax values, nAChRs compared [4]: 0.281 | Difference of pEC50 values, nAChRs compared [4]: -1.01 | Difference of Imax values, nAChRs compared [5]: -0.100 | Difference of pEC50 values, nAChRs compared [5]: -0.52 | Difference of Imax values, nAChRs compared [6]: 0.117 | Difference of pEC50 values, nAChRs compared [6]: -0.87 | Difference of Imax values, nAChRs compared [7]: 0.005 | Difference of pEC50 values, nAChRs compared [7]: -0.04 | Difference of Imax values, nAChRs compared [8]: 0.017 | Difference of pEC50 values, nAChRs compared [8]: 0.24 | Difference of Imax values, nAChRs compared [9]: 0.133 | Difference of pEC50 values, nAChRs compared [9]: -0.85 | Difference of Imax values, nAChRs compared [10]: 0.457 | Difference of pEC50 values, nAChRs compared [10]: -0.09 | Difference of Imax values, nAChRs compared [11]: 0.183 | Difference of pEC50 values, nAChRs compared [11]: -0.74 | Difference of Imax values, nAChRs compared [12]: 0.325 | Difference of pEC50 values, nAChRs compared [12]: -0.91 | Difference of Imax values, nAChRs compared [13]: -0.012 | Difference of pEC50 values, nAChRs compared [13]: -0.28 | Difference of Imax values, nAChRs compared [14]: 0.166 | Difference of pEC50 values, nAChRs compared [14]: -0.98 | Difference of Imax values, nAChRs compared [15]: -0.118 | Difference of pEC50 values, nAChRs compared [15]: -1.48 | Difference of Imax values, nAChRs compared [16]: -0.113 | Difference of pEC50 values, nAChRs compared [16]: -1.52 | Difference of Imax values, nAChRs compared [17]: -0.101 | Difference of pEC50 values, nAChRs compared [17]: -1.24 | Difference of Imax values, nAChRs compared [18]: 0.015 | Difference of pEC50 values, nAChRs compared [18]: -2.33 | Difference of Imax values, nAChRs compared (Dα1/Dα2/Dβ1 vs. Dα1/Dβ1/Dβ2): 0.339 | Difference of pEC50 values, nAChRs compared (Dα1/Dα2/Dβ1 vs. Dα1/Dβ1/Dβ2): -1.57 | Difference of Imax values, nAChRs compared (Dα1/Dα2/Dβ1 vs. Dα2/Dα3/Dβ1): -0.183 | Difference of pEC50 values, nAChRs compared (Dα1/Dα2/Dβ1 vs. Dα2/Dα3/Dβ1): -1.74 | Difference of Imax values, nAChRs compared [19]: 0.065 | Difference of pEC50 values, nAChRs compared [19]: -2.22 | Difference of Imax values, nAChRs compared (Dα1/Dα2/Dβ1 vs. Dα3/Dβ1/Dβ2): 0.207 | Difference of pEC50 values, nAChRs compared (Dα1/Dα2/Dβ1 vs. Dα3/Dβ1/Dβ2): -2.39 | Difference of Imax values, nAChRs compared [20]: -0.128 | Difference of pEC50 values, nAChRs compared [20]: 0.81 | Difference of Imax values, nAChRs compared [21]: -0.116 | Difference of pEC50 values, nAChRs compared [21]: 1.09 | Difference of Imax values, nAChRs compared [22]: 0.050 | Difference of pEC50 values, nAChRs compared [22]: 0.11 | Difference of Imax values, nAChRs compared [23]: -0.190 | Difference of pEC50 values, nAChRs compared [23]: 0.65 | Difference of Imax values, nAChRs compared [24]: -0.185 | Difference of pEC50 values, nAChRs compared [24]: 0.61 | Difference of Imax values, nAChRs compared (Dα1/Dα3/Dβ1 vs. Dα1/Dα2/Dβ1): -0.072 | Difference of pEC50 values, nAChRs compared (Dα1/Dα3/Dβ1 vs. Dα1/Dα2/Dβ1): 2.13 | Difference of Imax values, nAChRs compared [25]: -0.173 | Difference of pEC50 values, nAChRs compared [25]: 0.89 | Difference of Imax values, nAChRs compared [26]: -0.057 | Difference of pEC50 values, nAChRs compared [26]: -0.20 | Difference of Imax values, nAChRs compared (Dα1/Dα3/Dβ1 vs. Dα1/Dβ1/Dβ2): 0.267 | Difference of pEC50 values, nAChRs compared (Dα1/Dα3/Dβ1 vs. Dα1/Dβ1/Dβ2): 0.56 | Difference of Imax values, nAChRs compared (Dα1/Dα3/Dβ1 vs. Dα2/Dα3/Dβ1): -0.255 | Difference of pEC50 values, nAChRs compared (Dα1/Dα3/Dβ1 vs. Dα2/Dα3/Dβ1): 0.39 | Difference of Imax values, nAChRs compared [27]: -0.007 | Difference of pEC50 values, nAChRs compared [27]: -0.09 | Difference of Imax values, nAChRs compared (Dα1/Dα3/Dβ1 vs. Dα3/Dβ1/Dβ2): 0.135 | Difference of pEC50 values, nAChRs compared (Dα1/Dα3/Dβ1 vs. Dα3/Dβ1/Dβ2): -0.26 | Difference of Imax values, nAChRs compared [28]: -0.452 | Difference of pEC50 values, nAChRs compared [28]: 0.05 | Difference of Imax values, nAChRs compared [29]: -0.440 | Difference of pEC50 values, nAChRs compared [29]: 0.33
